The test concerns the target T1, human OX1 receptor (Homo sapiens, UniProt O43613).
T1 sequence (O43613 1-425): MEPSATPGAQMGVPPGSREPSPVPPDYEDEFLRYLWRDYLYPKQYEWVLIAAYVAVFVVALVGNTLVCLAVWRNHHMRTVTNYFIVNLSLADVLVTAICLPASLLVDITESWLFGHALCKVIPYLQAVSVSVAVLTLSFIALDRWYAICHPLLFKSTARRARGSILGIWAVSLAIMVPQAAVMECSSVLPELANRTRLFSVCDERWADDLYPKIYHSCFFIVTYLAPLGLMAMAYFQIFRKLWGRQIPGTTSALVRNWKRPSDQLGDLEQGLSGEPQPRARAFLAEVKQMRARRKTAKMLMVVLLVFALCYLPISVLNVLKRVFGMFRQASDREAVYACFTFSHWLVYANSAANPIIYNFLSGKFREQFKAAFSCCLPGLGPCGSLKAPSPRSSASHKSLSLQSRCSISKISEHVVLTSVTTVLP
Kind of test: IPone accumulation assay, CHO cells expressing OX1 (antagonism of orexin A). The conditions noted are these: IPone accumulation, CHO human OX1, orexin A EC80 challenge (~20 nM); read-out: fpKb average OX1 (converted). The class given is cell-based. The protocol: Generation of CHO stable cell lines expressing the human OX1R and OX2R. Stable cell lines for the human OX1R and OX2R receptors were generated through the transfection of CHO cells using the transfection reagent Genejuice (Novagen number 70967) and cDNA coding for either the human OX1R or OX2R. Cells were cultured in Sigma Nutrient Mixture F-12 Ham media (catalog number N6658) supplemented with 10% heat-inactivated FBS. Forty-eight hours after transfection, cells were harvested and placed under geneticin selection by culturing in Sigma Nutrient Mixture F-12 Ham media supplemented with 10% heat-inactivated FBS and geneticin (ThermoFisher Catalog number: 10131035). Selection of the final stable clone for each receptor was made on the basis of receptor expression, assay signal to noise and robustness though increasing passage. Selected clones for the human OX1R and OX2R were then frozen down into liquid nitrogen using Cell Freezing Medium-DMSO (Sigma-Aldrich catalog number: C6164). IPone accumulation assay. A CHO cell line stably expressing either human OX1 or OX2 receptor was used with the IPone HTRF assay kit (CisBio: Part #62[…]) to measure receptor activation. The assay was optimised to measure the ability (potency; fpKb) of antagonists to reduce agonist (orexin A)-induced inositol phosphate turnover. Briefly, cells were plated onto half area 96-well white walled plates at a density of 12,500 cells/well. Sixteen hours post-plating cell growth media was replaced with antagonist concentration-response curve diluted in stimulation buffer (supplied with the kit). Cells were incubated in a humidified incubator (37° C.) for 30 min before an EC80 challenge concentration ( 20 nM (OX1) and 40 nM (OX2)) of orexin A (Tocris catalogue number 1455). After 30 min stimulation in a humidified incubator (37° C.) the assay was terminated by the addition of detection mixture as per manufacturer's instructions. The concentration of compound which reduced orexin-A stimulated turnover of inositol phosphates by 50% (IC50) was calculated by fitting to a four parameter sigmoidal dose response curve. The IC50 values were converted to fpKB values using the orexin A pEC50 value estimated on each plate as well as the challenge concentration interpolated from the orexin A control curve.
Consider `COc1ncc(C2CCc3c(F)cccc3N(Cc3c(F)cc(Br)cc3F)C2=O)cc1S(C)(=O)=O` (racemic) [Example 19, 1-(4-bromo-2,6-difluorobenzyl)-6-fluoro-3-[6-methoxy-5-(methylsulfonyl)pyridin-3-yl]-1,3,4,5-tetrahydro-2H-1-benzazepin-2-one], for which the Kb was 0.0316 µM.

With `COc1ncc(C2CCc3c(F)cccc3N(Cc3c(F)cc(Br)cc3F)C2=O)cc1C(C)(F)F` (single isomer, unassigned) [Example 12, 1-(4-bromo-2,6-difluorobenzyl)-3-[5-(1,1-difluoroethyl)-6-methoxypyridin-3-yl]-6-fluoro-1,3,4,5-tetrahydro-2H-1-benzazepin-2-one], the Kb was 0.0126 µM.

As to `COc1ncc(C2CCc3c(F)cccc3N(Cc3cc(C#N)ccc3F)C2=O)cc1C(C)(F)F` (single isomer, unassigned) [Example 13, 3-({3-[5-(1,1-difluoroethyl)-6-methoxypyridin-3-yl]-6-fluoro-2-oxo-2,3,4,5-tetrahydro-1H-1-benzazepin-1-yl}methyl)-4-fluorobenzonitrile], the Kb is 0.0501 µM.

For `COc1ncc(C2CCc3c(F)cccc3N(Cc3c(F)cc(Br)cc3F)C2=O)cc1S(C)(=O)=O` (single isomer, unassigned) [Example 21, 1-(4-bromo-2,6-difluorobenzyl)-6-fluoro-3-[6-methoxy-5-(methylsulfonyl)pyridin-3-yl]-1,3,4,5-tetrahydro-2H-1-benzazepin-2-one], the Kb is 0.01 µM.

Regarding `COc1ncc(C2CCc3c(F)cccc3N(Cc3c(F)cc(Cl)cc3F)C2=O)cc1S(C)(=O)=O` (single isomer, unassigned) [Example 22, 1-(4-chloro-2,6-difluorobenzyl)-6-fluoro-3-[6-methoxy-5-(methylsulfonyl)pyridin-3-yl]-1,3,4,5-tetrahydro-2H-1-benzazepin-2-one], the Kb was 0.01 µM.

Consider `Cc1ncc(C2CCc3c(F)cccc3N(Cc3c(F)cc(Br)cc3F)C2=O)cc1C(C)(F)F` (single isomer, unassigned) [Example 35, 1-(4-bromo-2,6-difluorobenzyl)-3-[5-(1,1-difluoroethyl)-6-methylpyridin-3-yl]-6-fluoro-1,3,4,5-tetrahydro-2H-1-benzazepin-2-one], for which the Kb is 0.0631 µM.

Consider `Cc1ncc(C2CCc3c(F)cccc3N(Cc3c(F)cc(Br)cc3F)C2=O)cc1C(C)(F)F` (single isomer, unassigned) [Example 36, 1-(4-bromo-2,6-difluorobenzyl)-3-[5-(1,1-difluoroethyl)-6-methylpyridin-3-yl]-6-fluoro-1,3,4,5-tetrahydro-2H-1-benzazepin-2-one], for which the Kb was 0.02 µM.

As to `Cc1ncc(C2CCc3c(F)cccc3N(Cc3c(F)cc(Br)cc3F)C2=O)cc1S(C)(=O)=O` (single isomer, unassigned) [Example 38, 1-(4-bromo-2,6-difluorobenzyl)-6-fluoro-3-[6-methyl-5-(methylsulfonyl)pyridin-3-yl]-1,3,4,5-tetrahydro-2H-1-benzazepin-2-one], the Kb is 0.02 µM.

With `Cc1ncc(C2CCc3c(F)cccc3N(Cc3c(F)cc(Br)cc3F)C2=O)cc1S(C)(=O)=O` (single isomer, unassigned) [Example 39, 1-(4-bromo-2,6-difluorobenzyl)-6-fluoro-3-[6-methyl-5-(methylsulfonyl)pyridin-3-yl]-1,3,4,5-tetrahydro-2H-1-benzazepin-2-one], the Kb is 0.0316 µM.

Regarding `Cc1ccc(N2CCc3c(F)cccc3N(Cc3c(F)cc(Br)cc3F)C2=O)cc1C(C)(F)F` [Example 1, 1-(4-bromo-2,6-difluorobenzyl)-3-[3-(1,1-difluoroethyl)-4-methylphenyl]-6-fluoro-1,3,4,5-tetrahydro-2H-1,3-benzodiazepin-2-one], the Kb is 0.158 µM.

On to `[2H]C([2H])([2H])Oc1ncc(N2CCc3c(F)cccc3N(Cc3c(F)cc(Br)cc3F)C2=O)cc1C(C)(F)F` [Example 2, 1-(4-bromo-2,6-difluorobenzyl)-3-{5-(1,1-difluoroethyl)-6-[(^2H3)methyloxy]pyridin-3-yl}-6-fluoro-1,3,4,5-tetrahydro-2H-1,3-benzodiazepin-2-one], for which the Kb is 0.02 µM.

These data come from patent US20210179578A1, “OX1 ANTAGONISTS” (Heptares Therapeutics Limited, priority 2017, published 2021).
